Numbers after ± are expanded uncertainties.
What was measured:
[1] = 298.2 K; 101.33 kPa; Liquid; Vibrating tube method
[2] = refractive index (Na D-line) (dimensionless); conditions: 298.2 K; 101.33 kPa; Liquid; Standard Abbe refractometry
[3] = wn = mass fraction of the nth substance listed; conditions: 298.2 K, 100 kPa, Liquid, Vibrating tube method
[4] = refractive index (Na D-line) (dimensionless); wn = mass fraction of the nth substance listed; conditions: 298.2 K, 100 kPa, Liquid, Standard Abbe refractometry

CCCCO [butan-1-ol]
mass density [1]: 805.81 ± 1.9 kg/m3
refractive index [2]: 1.3973 ± 0.0032

CCCCO [butan-1-ol] + O
mass density ([3]; w2 = 0.2058): 844.74 ± 3.5 kg/m3
mass density ([3]; w2 = 0.9265): 986.16 ± 3.8 kg/m3
refractive index ([4]; w2 = 0.2058): 1.3885 ± 0.0036
refractive index ([4]; w2 = 0.9265): 1.3402 ± 0.0036

CCC(C)O (stereo not given) [butan-2-ol]
mass density [1]: 802.49 ± 0.95 kg/m3
refractive index [2]: 1.3952 ± 0.0016

CCC(C)O (stereo not given) [butan-2-ol] + O
mass density ([3]; w2 = 0.3523): 874.34 ± 3.6 kg/m3
mass density ([3]; w2 = 0.8131): 968.42 ± 3.7 kg/m3
refractive index ([4]; w2 = 0.3523): 1.3812 ± 0.0036
refractive index ([4]; w2 = 0.8131): 1.3513 ± 0.0036

CCCC(C)O (stereo not given) [pentan-2-ol]
mass density [1]: 805.37 ± 1.9 kg/m3
refractive index [2]: 1.4044 ± 0.0032

CCCC(C)O (stereo not given) [pentan-2-ol] + O
mass density ([3]; w2 = 0.1177): 827.45 ± 3.5 kg/m3
mass density ([3]; w2 = 0.9477): 989.77 ± 3.8 kg/m3
refractive index ([4]; w2 = 0.1177): 1.3992 ± 0.0036
refractive index ([4]; w2 = 0.9477): 1.3377 ± 0.0036

O [water]
mass density [1]: 997.17 ± 1.9 kg/m3
refractive index [2]: 1.3325 ± 0.0032

— the NIST ThermoML archive (doi:10.1016/j.jct.2017.03.019)
